From the NIST ThermoML archive (doi:10.1021/je900888e)

Assay: mn = molality of the nth substance listed, in mol/kg
Details: 101 kPa, Liquid; for speed of sound: Pulse-echo method

CCCC[P+](CCCC)(CCCC)CCCC.[Br-] [tetrabutylphosphonium bromide] + CCCCO
Details	mass density, 288.15 K [kg/m3]	mass density, 293.15 K [kg/m3]	mass density, 298.15 K [kg/m3]	mass density, 303.15 K [kg/m3]	mass density, 308.15 K [kg/m3]	mass density, 313.15 K [kg/m3]	mass density, 323.15 K [kg/m3]	speed of sound, 298.15 K [m/s]
m1 = 0.009722	813.972	810.179	806.37	802.533	798.665	794.76	786.817	–
m1 = 0.01455	814.314	810.525	806.716	802.882	799.017	795.113	787.175	–
m1 = 0.01936	814.655	810.867	807.061	803.227	799.366	795.464	787.531	1240.1
m1 = 0.0242	814.996	811.209	807.404	803.574	799.712	795.815	787.89	–
m1 = 0.02918	815.348	811.563	807.767	803.93	800.07	796.175	788.253	–
m1 = 0.0369	815.894	812.109	808.382	804.48	800.621	796.727	788.815	1241
m1 = 0.05364	817.07	813.293	809.495	805.673	801.825	797.943	790.046	1242
m1 = 0.07129	818.321	814.549	810.756	806.941	803.095	799.213	791.333	1243
m1 = 0.09251	819.818	816.049	812.265	808.455	804.62	800.743	792.887	1244.1
m1 = 0.1101	821.058	817.297	813.514	809.71	805.879	802.009	794.162	1245.1
m1 = 0.1395	823.126	819.37	815.598	811.804	807.981	804.127	796.295	1246.7
m1 = 0.1776	825.836	822.089	818.326	814.54	810.729	806.888	799.08	1248.8
m1 = 0.218	828.688	824.949	821.197	817.424	813.625	809.794	802.026	1251.1
m1 = 0.2537	831.238	827.51	823.765	820.001	816.21	812.388	804.641	1252.9
m1 = 0.2955	834.232	830.511	826.778	823.022	819.242	815.431	807.714	1255.3
m1 = 0.3323	836.873	833.16	829.434	825.687	821.922	818.127	810.433	1257.1

CCCC[P+](CCCC)(CCCC)CCCC.[Br-] [tetrabutylphosphonium bromide] + CCCO
Details	mass density, 288.15 K [kg/m3]	mass density, 293.15 K [kg/m3]	mass density, 298.15 K [kg/m3]	mass density, 303.15 K [kg/m3]	mass density, 308.15 K [kg/m3]	mass density, 313.15 K [kg/m3]	mass density, 323.15 K [kg/m3]	speed of sound, 298.15 K [m/s]
m1 = 0.008229	808.063	804.08	800.075	796.04	791.98	787.867	779.506	–
m1 = 0.01006	808.2	804.217	800.212	796.179	792.12	788.009	779.649	1205.6
m1 = 0.01526	808.58	804.599	800.599	796.569	792.51	788.405	780.051	–
m1 = 0.02043	808.96	804.977	800.981	796.957	792.896	788.788	780.443	–
m1 = 0.02524	809.318	805.33	801.34	797.315	793.259	789.158	780.808	1206.6
m1 = 0.03024	809.68	805.698	801.705	797.688	793.626	789.53	781.191	–
m1 = 0.03749	810.212	806.23	802.24	798.225	794.174	790.075	781.741	–
m1 = 0.05294	811.322	807.354	803.369	799.354	795.307	791.221	782.905	1208.6
m1 = 0.06813	812.403	808.443	804.463	800.458	796.411	792.34	784.043	1209.5
m1 = 0.0867	813.75	809.793	805.818	801.819	797.792	793.72	785.44	1210.8
m1 = 0.1076	815.247	811.298	807.331	803.338	799.313	795.248	786.995	1212.2
m1 = 0.1375	817.423	813.485	809.531	805.541	801.524	797.479	789.244	1213.9
m1 = 0.1743	820.087	816.159	812.214	808.243	804.242	800.208	792.006	1216.2
m1 = 0.2115	822.781	818.864	814.928	810.97	806.982	802.96	794.787	1218.4
m1 = 0.2447	825.209	821.3	817.377	813.431	809.45	805.445	797.302	1220.7
m1 = 0.2873	828.335	824.437	820.523	816.588	812.63	808.638	800.526	1223.5
m1 = 0.3248	831.089	827.205	823.305	819.382	815.432	811.451	803.369	1225.7

CCCC[P+](CCCC)(CCCC)CCCC.[Br-] [tetrabutylphosphonium bromide] + CCO
Details	mass density, 288.15 K [kg/m3]	mass density, 293.15 K [kg/m3]	mass density, 298.15 K [kg/m3]	mass density, 303.15 K [kg/m3]	mass density, 308.15 K [kg/m3]	mass density, 313.15 K [kg/m3]	mass density, 323.15 K [kg/m3]	speed of sound, 298.15 K [m/s]
m1 = 0.01059	794.469	790.202	785.915	781.605	777.266	772.883	763.983	1143.4
m1 = 0.01529	794.835	790.569	786.285	781.975	777.642	773.262	764.367	–
m1 = 0.02012	795.211	790.945	786.664	782.36	778.029	773.654	764.765	1144.2
m1 = 0.02498	795.579	791.314	787.039	782.735	778.405	774.033	765.15	–
m1 = 0.03006	795.97	791.71	787.435	783.133	778.811	774.44	765.563	1144.9
m1 = 0.03503	796.342	792.084	787.812	783.514	779.185	774.821	765.954	–
m1 = 0.04151	796.84	792.586	788.317	784.017	779.692	775.339	766.473	–
m1 = 0.04161	–	–	–	–	–	–	–	1145.8
m1 = 0.05762	798.064	793.819	789.557	785.266	780.958	776.605	767.762	1147
m1 = 0.0739	799.301	795.066	790.805	786.532	782.224	777.879	769.054	1148.3
m1 = 0.09578	800.947	796.718	792.466	788.201	783.906	779.575	770.773	1150
m1 = 0.1153	802.415	798.195	793.96	789.696	785.405	781.083	772.302	1151.6
m1 = 0.1491	805.003	800.793	796.569	792.326	788.054	783.746	775	1154
m1 = 0.1902	808.127	803.94	799.735	795.51	791.254	786.963	778.257	1157.1
m1 = 0.2304	811.194	807.016	802.825	798.61	794.369	790.1	781.434	1160.1
m1 = 0.2693	814.212	810.05	805.871	801.675	797.452	793.195	784.564	1163.2
m1 = 0.3148	817.67	813.522	809.364	805.185	800.979	796.743	788.154	1166.6
m1 = 0.3532	820.707	816.572	812.423	808.255	804.069	799.851	791.3	1169.7
